# Tests used:
# Assay type in all cases: functional
# A549 = experiment: Growth inhibition of human A549 cells after 48 hrs by SRB protein assay; settings: A549, 48 h; for TGI: read-out: Log TGI (converted)
# CAKI-1 = experiment: Growth inhibition of human CAKI1 cells after 48 hrs by SRB protein assay; settings: CAKI-1, 48 h; for TGI: read-out: Log TGI (converted)
# HCT-116 = experiment: Growth inhibition of human HCT116 cells after 48 hrs by SRB protein assay; settings: HCT-116, 48 h; for TGI: read-out: Log TGI (converted)
# ACHN = experiment: Growth inhibition of human ACHN cells after 48 hrs by SRB protein assay; settings: for TGI: read-out: Log TGI (converted)
# LOX IMVI = experiment: Growth inhibition of human LOX IMVI cells after 48 hrs by SRB protein assay; settings: for TGI: read-out: Log TGI (converted)
# [1] = Growth inhibition of human 786O cells after 48 hrs by SRB protein assay; settings: 786-0, 48 h; for TGI: read-out: Log TGI (converted)
# SNB-75 = experiment: Growth inhibition of human SNB75 cells after 48 hrs by SRB protein assay; settings: SNB-75, 48 h; for TGI: read-out: Log TGI (converted)
# COLO 205 = experiment: Growth inhibition of human COLO205 cells after 48 hrs by SRB protein assay; settings: COLO 205, 48 h; for TGI: read-out: Log TGI (converted)
# SNB-19 = experiment: Growth inhibition of human SNB19 cells after 48 hrs by SRB protein assay; settings: SNB-19, 48 h; for TGI: read-out: Log TGI (converted)
# NCI-H460 = experiment: Growth inhibition of human NCI-H460 cells after 48 hrs by SRB protein assay; settings: NCI-H460, 48 h; for TGI: read-out: Log TGI (converted)
# HCC 2998 = experiment: Growth inhibition of human HCC2998 cells after 48 hrs by SRB protein assay; settings: HCC 2998, 48 h; for TGI: read-out: Log TGI (converted)
# SN12C = experiment: Growth inhibition of human SN12C cells after 48 hrs by SRB protein assay; settings: for TGI: read-out: Log TGI (converted)
# T47D = experiment: Growth inhibition of human T47D cells after 48 hrs by SRB protein assay; settings: for TGI: read-out: Log TGI (converted)
# SK-MEL-5 = experiment: Growth inhibition of human SK-MEL-5 cells after 48 hrs by SRB protein assay; settings: SK-MEL-5, 48 h; for TGI: read-out: Log TGI (converted)
# OVCAR-8 = experiment: Growth inhibition of human OVCAR8 cells after 48 hrs by SRB protein assay; settings: OVCAR-8, 48 h; for TGI: read-out: Log TGI (converted)
# SK-MEL-28 = experiment: Growth inhibition of human SK-MEL-28 cells after 48 hrs by SRB protein assay; settings: SK-MEL-28, 48 h; for TGI: read-out: Log TGI (converted)
# SK-OV-3 = experiment: Growth inhibition of human SK-OV-3 cells after 48 hrs by SRB protein assay; settings: SK-OV-3, 48 h; for TGI: read-out: Log TGI (converted)
# OVCAR-3 = experiment: Growth inhibition of human OVCAR-3 cells after 48 hrs by SRB protein assay; settings: OVCAR-3, 48 h; for TGI: read-out: Log TGI (converted)
# HT-29 = experiment: Growth inhibition of human HT29 cells after 48 hrs by SRB protein assay; settings: HT-29, 48 h; for TGI: read-out: Log TGI (converted)
# PC-3 = experiment: Growth inhibition of human PC3 cells after 48 hrs by SRB protein assay; settings: PC-3, 48 h; for TGI: read-out: Log TGI (converted)
# UO-31 = experiment: Growth inhibition of human UO31 cells after 48 hrs by SRB protein assay; settings: UO-31, 48 h; for TGI: read-out: Log TGI (converted)
# MCF7 = experiment: Growth inhibition of human MCF7 cells after 48 hrs by SRB protein assay; settings: MCF7, 48 h; for TGI: read-out: Log TGI (converted)
# SF-539 = experiment: Growth inhibition of human SF539 cells after 48 hrs by SRB protein assay; settings: SF-539, 48 h; for TGI: read-out: Log TGI (converted)
# SF-268 = experiment: Growth inhibition of human SF268 cells after 48 hrs by SRB protein assay; settings: SF-268, 48 h; for TGI: read-out: Log TGI (converted)
# M14 = experiment: Growth inhibition of human M14 cells after 48 hrs by SRB protein assay; settings: M14, 48 h; for TGI: read-out: Log TGI (converted)
# NCI-H322M = experiment: Growth inhibition of human NCI-H322M cells after 48 hrs by SRB protein assay; settings: for TGI: read-out: Log TGI (converted)
# EKVX = experiment: Growth inhibition of human EKVX cells after 48 hrs by SRB protein assay; settings: for TGI: read-out: Log TGI (converted)
# MDA-MB-231 = experiment: Growth inhibition of MDA-MB-231 cells after 48 hrs by SRB protein assay; settings: Homo sapiens, MDA-MB-231, 48 h; for TGI: read-out: Log TGI (converted)
# OVCAR-5 = experiment: Growth inhibition of human OVCAR5 cells after 48 hrs by SRB protein assay; settings: OVCAR-5, 48 h; for TGI: read-out: Log TGI (converted)
# UACC-62 = experiment: Growth inhibition of human UACC62 cells after 48 hrs by SRB protein assay; settings: UACC-62, 48 h; for TGI: read-out: Log TGI (converted)
# DU-145 = experiment: Growth inhibition of human DU145 cells after 48 hrs by SRB protein assay; settings: DU-145, 48 h; for TGI: read-out: Log TGI (converted)
# Hs-578T = experiment: Growth inhibition of human HS578T cells after 48 hrs by SRB protein assay; settings: for TGI: read-out: Log TGI (converted)
# SW-620 = experiment: Growth inhibition of human SW620 cells after 48 hrs by SRB protein assay; settings: SW-620, 48 h; for TGI: read-out: Log TGI (converted)
# BT-549 = experiment: Growth inhibition of human BT549 cells after 48 hrs by SRB protein assay; settings: BT-549, 48 h; for TGI: read-out: Log TGI (converted)
# HCT-15 = experiment: Growth inhibition of human HCT15 cells after 48 hrs by SRB protein assay; settings: HCT-15, 48 h; for TGI: read-out: Log TGI (converted)
# UACC-257 = experiment: Growth inhibition of human UACC257 cells after 48 hrs by SRB protein assay; settings: UACC-257, 48 h; for TGI: read-out: Log TGI (converted)
# U-251 = experiment: Growth inhibition human U251 of cells after 48 hrs by SRB protein assay; settings: U-251, 48 h; for TGI: read-out: Log TGI (converted)
# CCRF-CEM = experiment: Growth inhibition of human CCRF-CEM cells after 48 hrs by SRB protein assay; settings: for TGI: read-out: Log TGI (converted)
# HOP-62 = experiment: Growth inhibition of human HOP62 cells after 48 hrs by SRB protein assay; settings: HOP-62, 48 h; for TGI: read-out: Log TGI (converted)
# RXF 393 = experiment: Growth inhibition of human RXF393 cells after 48 hrs by SRB protein assay; settings: RXF 393, 48 h; for TGI: read-out: Log TGI (converted)
smiles,measurement,setting,value
O=C(Cc1csc2nc(-c3ccc(Br)cc3)cn12)N/N=C/c1ccc(O)cc1,GI50,A549,10.7 µM
same,TGI,A549,33.9 µM
same,GI50,CAKI-1,14.8 µM
same,TGI,CAKI-1,49 µM
same,GI50,HCT-116,10.5 µM
same,TGI,HCT-116,24 µM
same,GI50,ACHN,14.8 µM
same,TGI,ACHN,51.3 µM
same,GI50,LOX IMVI,11.2 µM
same,TGI,LOX IMVI,26.3 µM
same,GI50,[1],26.3 µM
same,TGI,[1],89.1 µM
same,GI50,SNB-75,> 100000 nM
same,TGI,SNB-75,> 100 µM
same,GI50,COLO 205,43.7 µM
same,TGI,COLO 205,> 100 µM
same,GI50,SNB-19,57.5 µM
same,TGI,SNB-19,> 100 µM
same,GI50,NCI-H460,57.5 µM
same,TGI,NCI-H460,> 100 µM
same,GI50,HCC 2998,14.5 µM
same,TGI,HCC 2998,29.5 µM
same,GI50,SN12C,15.5 µM
same,TGI,SN12C,43.7 µM
same,GI50,T47D,31.6 µM
same,TGI,T47D,> 100 µM
same,GI50,SK-MEL-5,7.08 µM
same,TGI,SK-MEL-5,22.4 µM
same,GI50,OVCAR-8,7.08 µM
same,TGI,OVCAR-8,25.7 µM
same,GI50,SK-MEL-28,60.3 µM
same,TGI,SK-MEL-28,100 µM
same,GI50,SK-OV-3,52.5 µM
same,TGI,SK-OV-3,> 100 µM
same,GI50,OVCAR-3,24 µM
same,TGI,OVCAR-3,49 µM
same,GI50,HT-29,50.1 µM
same,TGI,HT-29,> 100 µM
same,GI50,PC-3,< 10 nM
same,TGI,PC-3,23.4 µM
same,GI50,UO-31,26.3 µM
same,TGI,UO-31,> 100 µM
same,GI50,MCF7,63.1 µM
same,TGI,MCF7,> 100 µM
same,GI50,SF-539,18.2 µM
same,TGI,SF-539,46.8 µM
same,GI50,SF-268,> 100000 nM
same,TGI,SF-268,> 100 µM
same,GI50,M14,10.2 µM
same,TGI,M14,23.4 µM
same,GI50,NCI-H322M,4.37 µM
same,TGI,NCI-H322M,34.7 µM
same,GI50,EKVX,11.5 µM
same,TGI,EKVX,66.1 µM
same,GI50,MDA-MB-231,10.5 µM
same,TGI,MDA-MB-231,43.7 µM
same,GI50,OVCAR-5,27.5 µM
same,TGI,OVCAR-5,> 100 µM
same,GI50,UACC-62,9.12 µM
same,TGI,UACC-62,23.4 µM
same,GI50,DU-145,22.4 µM
same,TGI,DU-145,87.1 µM
same,GI50,Hs-578T,23.4 µM
same,TGI,Hs-578T,93.3 µM
same,GI50,SW-620,31.6 µM
same,TGI,SW-620,> 100 µM
same,GI50,BT-549,13.5 µM
same,TGI,BT-549,56.2 µM
same,GI50,HCT-15,17.8 µM
same,TGI,HCT-15,61.7 µM
same,GI50,UACC-257,1510 nM
same,TGI,UACC-257,7.76 µM
same,GI50,U-251,21.4 µM
same,TGI,U-251,> 100 µM
same,GI50,CCRF-CEM,12.3 µM
same,TGI,CCRF-CEM,79.4 µM
same,GI50,HOP-62,18.2 µM
same,TGI,HOP-62,53.7 µM
same,TGI,RXF 393,40.7 µM
Nc1nc2[nH]cnc2c(=S)[nH]1 [THIOGUANINE],GI50,A549,3.55 µM
same,TGI,A549,105 µM
same,GI50,CAKI-1,0.537 µM
same,TGI,CAKI-1,15.8 µM
same,GI50,HCT-116,0.537 µM
same,TGI,HCT-116,16.2 µM
same,GI50,ACHN,1.95 µM
same,TGI,ACHN,112 µM
same,GI50,LOX IMVI,0.209 µM
same,TGI,LOX IMVI,9.12 µM
same,GI50,[1],0.832 µM
same,TGI,[1],107 µM
same,GI50,SNB-75,1450 nM
same,TGI,SNB-75,41.7 µM
same,GI50,COLO 205,1.7 µM
same,TGI,COLO 205,8.91 µM
same,GI50,SNB-19,79.4 µM
same,TGI,SNB-19,245 µM
same,GI50,NCI-H460,0.676 µM
same,TGI,NCI-H460,20 µM
same,GI50,HCC 2998,1 µM
same,TGI,HCC 2998,18.2 µM
same,GI50,SN12C,1.26 µM
same,TGI,SN12C,174 µM
same,GI50,T47D,2.04 µM
same,TGI,T47D,107 µM
same,GI50,SK-MEL-5,3.55 µM
same,TGI,SK-MEL-5,16.6 µM
same,GI50,OVCAR-8,0.692 µM
same,TGI,OVCAR-8,60.3 µM
same,GI50,SK-MEL-28,8.91 µM
same,TGI,SK-MEL-28,155 µM
same,GI50,SK-OV-3,0.55 µM
same,TGI,SK-OV-3,16.6 µM
same,GI50,OVCAR-3,0.708 µM
same,TGI,OVCAR-3,6.76 µM
same,GI50,HT-29,1.15 µM
same,TGI,HT-29,105 µM
same,GI50,PC-3,1780 nM
same,TGI,PC-3,174 µM
same,GI50,UO-31,1.48 µM
same,TGI,UO-31,32.4 µM
same,GI50,MCF7,0.708 µM
same,TGI,MCF7,42.7 µM
same,GI50,SF-539,1.02 µM
same,TGI,SF-539,69.2 µM
same,GI50,SF-268,1150 nM
same,TGI,SF-268,158 µM
same,GI50,M14,0.589 µM
same,TGI,M14,14.5 µM
same,GI50,NCI-H322M,7.41 µM
same,TGI,NCI-H322M,224 µM
same,GI50,EKVX,1.91 µM
same,TGI,EKVX,123 µM
same,GI50,MDA-MB-231,1.95 µM
same,TGI,MDA-MB-231,166 µM
same,GI50,OVCAR-5,0.661 µM
same,TGI,OVCAR-5,47.9 µM
same,GI50,UACC-62,0.501 µM
same,TGI,UACC-62,4.57 µM
same,GI50,DU-145,0.794 µM
same,TGI,DU-145,135 µM
same,GI50,Hs-578T,7.41 µM
same,TGI,Hs-578T,182 µM
same,GI50,SW-620,18.6 µM
same,TGI,SW-620,63.1 µM
same,GI50,BT-549,3.63 µM
same,TGI,BT-549,162 µM
same,GI50,HCT-15,1.1 µM
same,TGI,HCT-15,51.3 µM
same,GI50,UACC-257,2000 nM
same,TGI,UACC-257,97.7 µM
same,GI50,U-251,4.9 µM
same,TGI,U-251,240 µM
same,GI50,CCRF-CEM,0.155 µM
same,TGI,CCRF-CEM,25.7 µM
same,GI50,HOP-62,0.741 µM
same,TGI,HOP-62,28.8 µM
same,GI50,RXF 393,759 nM
same,TGI,RXF 393,7.08 µM

# — ChEMBL document CHEMBL1143799, “Synthesis and primary cytotoxicity evaluation of new imidazo[2,1-b]thiazole derivatives” (2007)
